Reference: patent US10383868B2, “Quinoline containing compounds and their use for treating endoplasmic reticulum stress-related diseases” (priority 2015, dated 2019)
pEC50: −log10 of the molar value.

Experiments:
Ob/ob mice = assay: Effect of a SERCA agonist on the level of blood glucose in ob/ob mice; type: in vivo; conditions: n=3; for Blood Glucose Day 0: Day 0 (baseline), fasting glucose, 50 mg/kg i.p. group; for Blood Glucose Day 4: Day 4, fasting glucose, 50 mg/kg i.p. once a day
Method: Ob/ob mice (10 weeks old, n=3) are intraperitoneally (i.p.) injected with 100 μL of a solution containing 0 (vehicle), 10 or 50 mg/kg of a test compound once a day for a total of 5 days. Fasting glucose is measured at baseline and 10 hrs after the administration of the test compound. Glucose levels are measured in blood samples drawn from the tail vein using the OneTouch Ultra 2 Meter (LifeScan, Inc.).

SERCA = assay: Activation of SERCA, NADH-linked, enzyme-coupled ATPase assay with SR vesicles; type: biochemical; conditions: concentration required for 50% activation of the maximum Vmax, pH 7.0, 5 mM ATP
Method: Test compounds were characterized over a range of concentrations using an NADH-linked, enzyme-coupled ATPase assay. Each well contained […] of SR vesicles (optimized for skeletal or cardiac SR, respectively), 50 mM MOPS (pH 7.0), 100 mM KCl, 5 mM MgCl2, 1 mM EGTA, 0.2 mM NADH, 1 mM phosphoenol pyruvate, 5 IU pyruvate kinase, 5 IU lactate dehydrogenase, and […] A23187 (a calcium ionophore), and CaCl2 was added to set free [Ca^2+] to the specific values. The assay was started upon addition of ATP at a final concentration of 5 mM, and read in a SpectraMax Plus microplate spectrophotometer and the ATPase activities were fitted using the Hill function. EC50 values were determined as the concentrations of the test compounds that were required for 50% activation of the maximum Vmax.

| SMILES | Blood Glucose Day 0 (Ob/ob mice) | Blood Glucose Day 4 (Ob/ob mice) | pEC50 (SERCA) |
| --- | --- | --- | --- |
| Cc1ccc2cccc(C(=O)Nc3ccc(OC(C)C)cc3)c2n1 [Compound A1, N-(4-Isopropoxyphenyl)-2-methylquinoline-8-carboxamide] | 319 mg/dL | 348 mg/dL | 6.22 |
| Cc1ccc2cccc(C(=O)Nc3cc(Br)cs3)c2n1 [Compound B1] | 318 mg/dL | 333 mg/dL | 5.92 |
| Cc1ccc2cccc(C(=O)Nc3ccc(Br)s3)c2n1 [Compound B2] | 320 mg/dL | 215 mg/dL | 6.00 |
